Laboratory results from patent publication US10543212B2, “Substituted amines for treating cardiac diseases” (Cardurion Pharmaceuticals, LLC, priority 2017, dated 2020).

Target: T1, Full-length, GST-tagged, human CaMKIIδ (Homo sapiens, UniProt Q13557)
T1 construct: Full-Length, Glutathione-S-Transferase(GST)-Tagged, Human CaMKIIδ was purchased from Carna Biosciences; purchased Carna Biosciences 02-111
Experiment: CaMKIIδ binding assay (TR-FRET with BODIPY-labeled probe ligand)
Conditions: CaMKIIδ binding assay, results of Table 2
How it was run: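 Compounds were tested as 4-fold, eight-point series for 1 hr at room temperature, and IC50 was obtained by logistic fitting against a 3 μM parent-compound control. Signal came from displacement of a 300 nM BODIPY ligand from 0.5 nM GST-CaMKIIδ, detected via Tb-anti-GST in calmodulin/Ca2+ (pH 7.6).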

T1 sequence (Q13557 1-478 isoform Q13557-12): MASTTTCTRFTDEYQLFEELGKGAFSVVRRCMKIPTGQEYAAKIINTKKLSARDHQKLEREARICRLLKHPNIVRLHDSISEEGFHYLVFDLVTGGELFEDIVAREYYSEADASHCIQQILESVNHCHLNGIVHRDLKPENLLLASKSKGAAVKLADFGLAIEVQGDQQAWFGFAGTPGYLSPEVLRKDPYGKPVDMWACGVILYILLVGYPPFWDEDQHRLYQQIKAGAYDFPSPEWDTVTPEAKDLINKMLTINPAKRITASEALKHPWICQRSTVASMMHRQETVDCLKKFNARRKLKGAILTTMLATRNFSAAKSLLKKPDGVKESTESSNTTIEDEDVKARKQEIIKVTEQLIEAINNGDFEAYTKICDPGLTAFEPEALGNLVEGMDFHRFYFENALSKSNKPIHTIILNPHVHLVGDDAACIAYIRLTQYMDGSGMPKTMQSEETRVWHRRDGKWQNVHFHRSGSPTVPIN

SMILES | IC50 [nM]
COc1cc2c(cc1Nc1ncc(-c3ccc(Cl)c(O[C@@H](C)Cn4cnnn4)c3)cn1)CN(C1CCOCC1)CC2 [Example 502, (S)-N-(5-(3-((1-(1H-tetrazol-1-yl)propan-2-yl)oxy)-4-chlorophenyl)pyrimidin-2-yl)-6-methoxy-2-(tetrahydro-2H-pyran-4-yl)-1,2,3,4-tetrahydroisoquinolin-7-amine] | < 10
COc1cnc(N2CCC(C)(O)CC2)cc1Nc1ncc(-c2ccc(Cl)c(O[C@@H](C)Cn3cnnn3)c2)cn1 [Example 481, (S)-1-(4-((5-(3-((1-(1H-tetrazol-1-yl)propan-2-yl)oxy)-4-chlorophenyl)pyrimidin-2-yl)amino)-5-methoxypyridin-2-yl)-4-methylpiperidin-4-ol] | 10 to 100
COc1cnc(C2CCOCC2)cc1Nc1ncc(-c2ccc(Cl)c(O[C@@H](C)Cn3cnnn3)c2)cn1 [Example 517, (S)-5-(3-((1-(1H-tetrazol-1-yl)propan-2-yl)oxy)-4-chlorophenyl)-N-(5-methoxy-2-(tetrahydro-2H-pyran-4-yl)pyridin-4-yl)pyrimidin-2-amine] | 10 to 100
C[C@@H](Cn1cnnn1)Oc1cc(-c2cnc(Nc3cn(CC4CCNC4)nc3C(F)(F)F)nc2)ccc1Cl (stereo partly drawn) [Example 572, 5-(3-(((S)-1-(1H-tetrazol-1-yl)propan-2-yl)oxy)-4-chlorophenyl)-N-(1-(pyrrolidin-3-ylmethyl)-3-(trifluoromethyl)-1H-pyrazol-4-yl)pyrimidin-2-amine] | < 10
COc1cc2c(cc1Nc1ncc(-c3ccc(Cl)c(O[C@@H](C)Cn4cnnn4)c3)cn1)CCN(c1ccnc(C)n1)C2 [Example 505, (S)-N-(5-(3-((1-(1H-tetrazol-1-yl)propan-2-yl)oxy)-4-chlorophenyl)pyrimidin-2-yl)-7-methoxy-2-(2-methylpyrimidin-4-yl)-1,2,3,4-tetrahydroisoquinolin-6-amine] | 10 to 100
C[C@@H](Cn1cnnn1)Oc1cc(-c2cnc(Nc3cc(C4CCN(C5COC5)CC4)c(F)cc3F)nc2)ccc1Cl [Example 578, (S)-5-(3-((1-(1H-tetrazol-1-yl)propan-2-yl)oxy)-4-chlorophenyl)-N-(2,4-difluoro-5-(1-(oxetan-3-yl)piperidin-4-yl)phenyl)pyrimidin-2-amine] | 10 to 100
C[C@@H](Cn1cnnn1)Oc1cc(-c2cnc(Nc3cc4c(cc3Cl)CCN(C3COC3)CC4)nc2)ccc1C#N [Example 539, (S)-2-((1-(1H-tetrazol-1-yl)propan-2-yl)oxy)-4-(2-((8-chloro-3-(oxetan-3-yl)-2,3,4,5-tetrahydro-1H-benzo[d]azepin-7-yl)amino)pyrimidin-5-yl)benzonitrile] | < 10
COc1ccc(CN2CCS(=O)(=O)CC2)cc1Nc1ncc(-c2ccc(Cl)c(O[C@@H](C)Cn3cnnn3)c2)cn1 [Example 449, (S)-4-(3-((5-(3-((1-(1H-tetrazol-1-yl)propan-2-yl)oxy)-4-chlorophenyl)pyrimidin-2-yl)amino)-4-methoxybenzyl)thiomorpholine 1,1-dioxide] | 10 to 100

Same assay, conditions: CaMKIIδ binding assay; activity class per Table 2

SMILES | IC50 [nM]
C[C@@H](Cn1cnnn1)Oc1cc(-c2cnc(Nc3cn(-c4cn[nH]c4)nc3C(F)(F)F)nc2)ccc1Cl [Example 890, (S)-N-(5-(3-((1-(1H-tetrazol-1-yl)propan-2-yl)oxy)-4-chlorophenyl)pyrimidin-2-yl)-3-(trifluoromethyl)-1′H-[1,4′-bipyrazol]-4-amine] | 10 to 100
C[C@@H](Cn1cnnn1)Oc1cc(-c2cnc(Nc3cn(C4(C(N)=O)CCC4)nc3OCC(F)(F)F)nc2)ccc1Cl [Example 917, (S)-1-(4-((5-(3-((1-(1H-tetrazol-1-yl)propan-2-yl)oxy)-4-chlorophenyl)pyrimidin-2-yl)amino)-3-(2,2,2-trifluoroethoxy)-1H-pyrazol-1-yl)cyclobutane-1-carboxamide] | < 10

Same assay, conditions: Table 2; CaMKIIδ binding assay, activity given as class A/B/C

SMILES | IC50 [nM]
Cc1cc(Nc2ncc(-c3ccc(Cl)c(O[C@@H](C)Cn4cnnn4)c3)cn2)n(C(C)C)n1 [Example 742, (S)-5-(3-((1-(1H-tetrazol-1-yl)propan-2-yl)oxy)-4-chlorophenyl)-N-(1-isopropyl-3-methyl-1H-pyrazol-5-yl)pyrimidin-2-amine] | 10 to 100
C[C@@H](Cn1cnnn1)Oc1cc(-c2cnc(Nc3ncc(CO)n3C)nc2)ccc1Cl [Example 750, (S)-(2-((5-(3-((1-(1H-tetrazol-1-yl)propan-2-yl)oxy)-4-chlorophenyl)pyrimidin-2-yl)amino)-1-methyl-1H-imidazol-5-yl)methanol] | ≥ 100
CC(=O)NCCn1cc(Nc2ncc(-c3ccc(Cl)c(O[C@@H](C)Cn4cnnn4)c3)cn2)c(C(F)(F)F)n1 [Example 846, (S)-N-(2-(4-((5-(3-((1-(1H-tetrazol-1-yl)propan-2-yl)oxy)-4-chlorophenyl)pyrimidin-2-yl)amino)-3-(trifluoromethyl)-1H-pyrazol-1-yl)ethyl)acetamide] | 10 to 100
CCn1cc(Nc2ncc(-c3ccc(Cl)c(O[C@@H](C)Cn4cnnn4)c3)cn2)c(C(=O)N2CCOCC2)n1 [Example 866, (S)-(4-((5-(3-((1-(1H-tetrazol-1-yl)propan-2-yl)oxy)-4-chlorophenyl)pyrimidin-2-yl)amino)-1-ethyl-1H-pyrazol-3-yl)(morpholino)methanone] | 10 to 100
C[C@@H](Cn1cnnn1)Oc1cc(-c2cnc(Nc3cn(-c4cccc(=O)[nH]4)nc3OCC(F)(F)F)nc2)ccc1Cl [Example 879, (S)-6-(4-((5-(3-((1-(1H-tetrazol-1-yl)propan-2-yl)oxy)-4-chlorophenyl)pyrimidin-2-yl)amino)-3-(2,2,2-trifluoroethoxy)-1H-pyrazol-1-yl)pyridin-2(1H)-one] | 10 to 100
C[C@H](CO)n1cc(Nc2ncc(-c3ccc(Cl)c(O[C@@H](C)Cn4cnnn4)c3)cn2)c(OCC(F)(F)F)n1 [Example 787, (R)-2-(4-((5-(3-(((S)-1-(1H-tetrazol-1-yl)propan-2-yl)oxy)-4-chlorophenyl)pyrimidin-2-yl)amino)-3-(2,2,2-trifluoroethoxy)-1H-pyrazol-1-yl)propan-1-ol] | < 10
C[C@@H](Cn1cnnn1)Oc1cc(-c2cnc(Nc3cn(CC(O)(C(F)(F)F)C(F)(F)F)nc3C(F)(F)F)nc2)ccc1Cl [Example 744, (S)-2-((4-((5-(3-((1-(1H-tetrazol-1-yl)propan-2-yl)oxy)-4-chlorophenyl)pyrimidin-2-yl)amino)-3-(trifluoromethyl)-1H-pyrazol-1-yl)methyl)-1,1,1,3,3,3-hexafluoropropan-2-ol] | ≥ 100
C[C@@H](Cn1cnnn1)Oc1cc(-c2cnc(Nc3cn(C4CC5(C4)CN(C4COC4)C5)nc3OCC(F)(F)F)nc2)ccc1Cl [Example 854, (S)-5-(3-((1-(1H-tetrazol-1-yl)propan-2-yl)oxy)-4-chlorophenyl)-N-(1-(2-(oxetan-3-yl)-2-azaspiro[3.3]heptan-6-yl)-3-(2,2,2-trifluoroethoxy)-1H-pyrazol-4-yl)pyrimidin-2-amine] | < 10
C[C@@H](Cn1cnnn1)Oc1cc(-c2cnc(Nc3cn([C@H]4CC[C@@H](N5CCOCC5)CC4)nc3OC[C@@H]3CC3(F)F)nc2)ccc1Cl [Example 870, 5-(3-(((S)-1-(1H-tetrazol-1-yl)propan-2-yl)oxy)-4-chlorophenyl)-N-(3-(((S)-2,2-difluorocyclopropyl)methoxy)-1-(cis-4-morpholinocyclohexyl)-1H-pyrazol-4-yl)pyrimidin-2-amine] | < 10
Cc1ccc(-c2cnc(Nc3cn([C@H]4CC[C@@H](N5CCOCC5)CC4)nc3OCC(F)(F)F)nc2)cc1O[C@@H](C)Cn1cnnn1 [Example 812, 5-(3-(((S)-1-(1H-tetrazol-1-yl)propan-2-yl)oxy)-4-methylphenyl)-N-(1-(cis-4-morpholinocyclohexyl)-3-(2,2,2-trifluoroethoxy)-1H-pyrazol-4-yl)pyrimidin-2-amine] | < 10

Same assay, conditions: Table 2; activity class for CaMKIIδ

SMILES | IC50 [nM]
C[C@@H](Cn1cnnn1)Oc1cc(-c2cnc(Nc3cn(CCCO)nc3C(F)(F)F)nc2)ccc1Cl [Example 718, (S)-3-(4-((5-(3-((1-(1H-tetrazol-1-yl)propan-2-yl)oxy)-4-chlorophenyl)pyrimidin-2-yl)amino)-3-(trifluoromethyl)-1H-pyrazol-1-yl)propan-1-ol] | 10 to 100
C[C@@H](Cn1cnnn1)Oc1cc(-c2cnc(Nc3cn(C4CCCCO4)nc3OCC(F)(F)F)nc2)ccc1Cl (stereo partly drawn) [Example 678, 5-(3-(((S)-1-(1H-tetrazol-1-yl)propan-2-yl)oxy)-4-chlorophenyl)-N-(1-(tetrahydro-2H-pyran-2-yl)-3-(2,2,2-trifluoroethoxy)-1H-pyrazol-4-yl)pyrimidin-2-amine] | < 10
COc1cc(N2CCN3CCOCC3C2)ccc1Nc1ncc(-c2ccc(Cl)c(O[C@@H](C)Cn3cnnn3)c2)cn1 (stereo partly drawn) [Example 673, 5-(3-(((S)-1-(1H-tetrazol-1-yl)propan-2-yl)oxy)-4-chlorophenyl)-N-(4-(hexahydropyrazino[2,1-c][1,4]oxazin-8(1H)-yl)-2-methoxyphenyl)pyrimidin-2-amine] | < 10
C[C@@H](Cn1cnnn1)Oc1cc(-c2cnc(Nc3cc(-c4ccccc4)nn3C)nc2)ccc1Cl [Example 719, (S)-5-(3-((1-(1H-tetrazol-1-yl)propan-2-yl)oxy)-4-chlorophenyl)-N-(1-methyl-3-phenyl-1H-pyrazol-5-yl)pyrimidin-2-amine] | 10 to 100
C[C@@H](Cn1cnnn1)Oc1cc(-c2cnc(Nc3cn(CC4CN(C(=O)OC(C)(C)C)C4)nc3C(F)(F)F)nc2)ccc1Cl [Example 596, tert-butyl (S)-3-((4-((5-(3-((1-(1H-tetrazol-1-yl)propan-2-yl)oxy)-4-chlorophenyl)pyrimidin-2-yl)amino)-3-(trifluoromethyl) -1H-pyrazol-1-yl)methyl)azetidine-1-carboxylate] | ≥ 100
